Assay results as given in patent US9598421B2, “Imidazopyridazine compounds” (Pfizer Inc., priority 2014, dated 2017).

How the values were obtained:
Type in all cases: biochemical
Human PDE4D = Human PDE4D (Homo sapiens (Human), UniProt Q08499); assay: PDE4D Scintillation Proximity Assay (SPA), inhibition of enzyme activity; conditions: human recombinant enzyme, 1 μM cAMP substrate, 30 min at 25° C., geometric mean of 2-9 determinations unless otherwise indicated, read-out: Human PDE4D FL
Human PDE4A = Human PDE4A (Homo sapiens (Human), UniProt P27815); assay: PDE4A Scintillation Proximity Assay (SPA), inhibition of enzyme activity; conditions: human recombinant enzyme, 1 μM cAMP substrate, 30 min at 25° C., geometric mean of 2-9 determinations unless otherwise indicated, read-out: Human PDE4A FL
Human PDE4A, sequence (P27815 other isoform, or with tags, fused parts or gaps): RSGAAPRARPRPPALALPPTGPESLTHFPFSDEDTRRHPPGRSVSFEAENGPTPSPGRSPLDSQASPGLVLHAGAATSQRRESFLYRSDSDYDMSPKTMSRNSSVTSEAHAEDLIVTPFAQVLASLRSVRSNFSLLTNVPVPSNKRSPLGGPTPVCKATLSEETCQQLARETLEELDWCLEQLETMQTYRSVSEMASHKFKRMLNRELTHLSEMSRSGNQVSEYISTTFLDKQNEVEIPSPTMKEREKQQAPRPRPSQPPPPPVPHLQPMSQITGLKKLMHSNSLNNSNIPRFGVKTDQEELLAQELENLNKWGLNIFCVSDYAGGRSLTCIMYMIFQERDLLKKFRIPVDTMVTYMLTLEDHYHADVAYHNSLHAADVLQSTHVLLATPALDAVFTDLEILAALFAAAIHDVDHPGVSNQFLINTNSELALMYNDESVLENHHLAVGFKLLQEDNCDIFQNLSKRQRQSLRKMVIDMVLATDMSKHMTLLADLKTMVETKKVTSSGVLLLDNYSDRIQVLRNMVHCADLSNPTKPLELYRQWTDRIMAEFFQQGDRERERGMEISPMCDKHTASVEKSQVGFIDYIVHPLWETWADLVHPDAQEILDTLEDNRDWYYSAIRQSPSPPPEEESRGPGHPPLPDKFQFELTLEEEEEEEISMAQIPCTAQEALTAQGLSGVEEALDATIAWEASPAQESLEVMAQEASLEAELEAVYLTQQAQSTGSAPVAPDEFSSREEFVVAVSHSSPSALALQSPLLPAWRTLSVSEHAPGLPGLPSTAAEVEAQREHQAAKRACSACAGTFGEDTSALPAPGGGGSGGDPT
Method: (§1) The PDE4A3, PDE4B1, PDE4C1 and PDE4D3 assays use the Scintillation Proximity Assay (SPA) technology to measure the inhibition of human recombinant PDE4A1, PDE4B3, PDE4C1, and PDE4D3 enzyme activity by compounds in vitro. The PDE4A1, PDE4B3, PDE4C1, and PDE4D3 assays are run in parallel using identical parameters, except for the concentration of enzyme (80 pM PDE4A3, 40 pM PDE4B3, 40 pM PDE4C1 and 10 pM PDE4D). […] Reactions are incubated for 30 min at 25° C. The addition of 20 uL of 8 mg/ml yitrium silicate SPA beads (Perkin Elmer) stops the reaction. The plates are sealed (TopSeal, Perkin Elmer) and the beads are allowed to settle for 8 hrs, after which they are read on the Trilux Microbeta overnight.

Human PDE4C = Human PDE4C (Homo sapiens (Human), UniProt Q08493); assay: PDE4C Scintillation Proximity Assay (SPA), inhibition of enzyme activity; conditions: human recombinant enzyme, 1 μM cAMP substrate, 30 min at 25° C., geometric mean of 2-9 determinations unless otherwise indicated, read-out: Human PDE4C FL
Human PDE4C, sequence (Q08493 2-712): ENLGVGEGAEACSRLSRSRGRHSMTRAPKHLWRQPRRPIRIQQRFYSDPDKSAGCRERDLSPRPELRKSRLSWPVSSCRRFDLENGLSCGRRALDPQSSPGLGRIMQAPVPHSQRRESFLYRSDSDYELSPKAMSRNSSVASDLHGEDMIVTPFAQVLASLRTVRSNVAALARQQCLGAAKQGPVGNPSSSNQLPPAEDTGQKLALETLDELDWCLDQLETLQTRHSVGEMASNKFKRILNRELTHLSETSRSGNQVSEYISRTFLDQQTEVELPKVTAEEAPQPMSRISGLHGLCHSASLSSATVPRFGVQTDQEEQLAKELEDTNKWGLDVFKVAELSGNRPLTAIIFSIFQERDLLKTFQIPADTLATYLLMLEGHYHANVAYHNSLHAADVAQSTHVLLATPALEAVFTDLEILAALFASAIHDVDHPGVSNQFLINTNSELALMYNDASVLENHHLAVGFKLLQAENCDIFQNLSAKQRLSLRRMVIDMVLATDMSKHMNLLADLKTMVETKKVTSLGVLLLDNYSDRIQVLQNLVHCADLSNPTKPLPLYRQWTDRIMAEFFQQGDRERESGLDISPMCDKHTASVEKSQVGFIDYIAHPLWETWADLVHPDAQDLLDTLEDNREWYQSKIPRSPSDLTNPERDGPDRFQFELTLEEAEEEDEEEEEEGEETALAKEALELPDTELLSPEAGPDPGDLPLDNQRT
Method: as §1

Human PDE4D, sequence (Q08499 186-808): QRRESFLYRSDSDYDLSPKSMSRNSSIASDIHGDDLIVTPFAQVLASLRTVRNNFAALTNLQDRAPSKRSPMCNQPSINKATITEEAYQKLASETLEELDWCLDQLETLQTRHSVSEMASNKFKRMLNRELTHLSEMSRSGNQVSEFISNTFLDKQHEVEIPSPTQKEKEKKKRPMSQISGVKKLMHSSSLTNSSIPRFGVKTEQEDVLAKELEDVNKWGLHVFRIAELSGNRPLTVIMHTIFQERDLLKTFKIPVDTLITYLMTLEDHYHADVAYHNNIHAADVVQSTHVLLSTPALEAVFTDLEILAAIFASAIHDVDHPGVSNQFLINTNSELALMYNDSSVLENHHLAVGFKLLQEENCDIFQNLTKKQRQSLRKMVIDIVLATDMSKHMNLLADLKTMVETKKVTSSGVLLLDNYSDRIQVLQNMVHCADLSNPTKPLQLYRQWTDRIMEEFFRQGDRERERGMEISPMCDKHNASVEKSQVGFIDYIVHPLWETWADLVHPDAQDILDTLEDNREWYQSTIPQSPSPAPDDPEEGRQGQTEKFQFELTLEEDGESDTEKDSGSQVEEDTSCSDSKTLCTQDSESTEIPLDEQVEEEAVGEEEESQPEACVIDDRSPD

Compound: N#Cc1ccc(-c2c(C(=O)N3CCC3)nc3cccnn23)cc1F [Example 23, 4-[2-(azetidin-1-ylcarbonyl)imidazo[1,2-b]pyridazin-3-yl]-2-fluorobenzonitrile]
- IC50 (Human PDE4D): 4.13 µM
- IC50 (Human PDE4A): 0.0151 µM
- IC50 (Human PDE4C): 0.0458 µM

Compound: N#Cc1cc(F)c(-c2c(C(=O)N3CCC3)nc3cccnn23)cc1F [Example 24, 4-[2-(azetidin-1-ylcarbonyl)imidazo[1,2-b]pyridazin-3-yl]-2,5-difluorobenzonitrile]
- IC50 (Human PDE4D): > 2.15 µM
- IC50 (Human PDE4A): 0.00504 µM
- IC50 (Human PDE4C): 0.0597 µM

Compound: CNC(=O)c1nc2cccnn2c1-c1cc(F)c(Cl)cc1C [Example 25, 3-(4-chloro-5-fluoro-2-methylphenyl)-N-methylimidazo[1,2-b]pyridazine-2-carboxamide]
- IC50 (Human PDE4D): 4.97 µM
- IC50 (Human PDE4A): 0.0386 µM
- IC50 (Human PDE4C): 0.15 µM

Compound: CCCNC(=O)c1nc2cccnn2c1-c1ccc(Cl)cc1 [Example 26, 3-(4-chlorophenyl)-N-propylimidazo[1,2-b]pyridazine-2-carboxamide]
- IC50 (Human PDE4D): 3.8 µM
- IC50 (Human PDE4A): 0.0855 µM
- IC50 (Human PDE4C): 0.111 µM

Compound: CCCNC(=O)c1nc2cccnn2c1-c1cc(Cl)cc(Cl)c1 [Example 28, 3-(3,5-dichlorophenyl)-N-propylimidazo[1,2-b]pyridazine-2-carboxamide]
- IC50 (Human PDE4D): 0.393 µM
- IC50 (Human PDE4A): 0.0156 µM
- IC50 (Human PDE4C): 0.049 µM

Compound: CCCNC(=O)c1nc2cccnn2c1-c1ccc(Cl)c(F)c1 [Example 29, 3-(4-chloro-3-fluorophenyl)-N-propylimidazo[1,2-b]pyridazine-2-carboxamide]
- IC50 (Human PDE4D): 0.409 µM
- IC50 (Human PDE4A): 0.00348 µM
- IC50 (Human PDE4C): 0.0138 µM

Compound: CC1CC1NC(=O)c1nc2cccnn2c1-c1ccc(Cl)cc1 (stereo not drawn) [Example 30, 3-(4-chlorophenyl)-N-(2-methylcyclopropyl)imidazo[1,2-b]pyridazine-2-carboxamide]
- IC50 (Human PDE4D): 4 µM
- IC50 (Human PDE4A): 0.0116 µM
- IC50 (Human PDE4C): 0.0245 µM

Compound: COC1CN(C(=O)c2nc3cccnn3c2-c2ccc(Cl)cc2)C1 [Example 31, [3-(4-chlorophenyl)imidazo[1,2-b]pyridazin-2-yl](3-methoxyazetidin-1-yl)methanone]
- IC50 (Human PDE4D): < 26.2 µM
- IC50 (Human PDE4A): 2.82 µM
- IC50 (Human PDE4C): 5.81 µM

Compound: CN(C(=O)c1nc2cccnn2c1-c1ccc(Cl)cc1)C1CC1 [Example 32, 3-(4-chlorophenyl)-N-cyclopropyl-N-methylimidazo[1,2-b]pyridazine-2-carboxamide]
- IC50 (Human PDE4D): > 30 µM
- IC50 (Human PDE4A): 1.03 µM
- IC50 (Human PDE4C): 0.469 µM

Compound: CC1(NC(=O)c2nc3cccnn3c2-c2ccc(Cl)cc2)CC1 [Example 33, 3-(4-chlorophenyl)-N-(1-methylcyclopropyl)imidazo[1,2-b]pyridazine-2-carboxamide]
- IC50 (Human PDE4D): 2.33 µM
- IC50 (Human PDE4A): 0.0586 µM
- IC50 (Human PDE4C): 0.127 µM

Compound: O=C(NC1CC1)c1nc2cccnn2c1-c1cc(F)cc(Cl)c1 [Example 35, 3-(3-chloro-5-fluorophenyl)-N-cyclopropylimidazo[1,2-b]pyridazine-2-carboxamide]
- IC50 (Human PDE4D): 1.22 µM
- IC50 (Human PDE4A): 0.0357 µM
- IC50 (Human PDE4C): 0.037 µM

Compound: O=C(NC1CC1)c1nc2cccnn2c1-c1cccc(Cl)c1 [Example 36, 3-(3-chlorophenyl)-N-cyclopropylimidazo[1,2-b]pyridazine-2-carboxamide]
- IC50 (Human PDE4D): 0.254 µM
- IC50 (Human PDE4A): 0.0237 µM
- IC50 (Human PDE4C): 0.021 µM

Compound: O=C(NC12CC(C1)C2)c1nc2cccnn2c1-c1ccc(Cl)cc1 [Example 37, N-(bicyclo[1.1.1]pent-1-yl)-3-(4-chlorophenyl)imidazo[1,2-b]pyridazine-2-carboxamide]
- IC50 (Human PDE4D): 2.57 µM
- IC50 (Human PDE4A): 0.127 µM
- IC50 (Human PDE4C): 0.161 µM

Compound: O=C(NC1CC1)c1nc2cccnn2c1-c1ccc2ocnc2c1 [Example 39, 3-(1,3-benzoxazol-5-yl)-N-cyclopropylimidazo[1,2-b]pyridazine-2-carboxamide]
- IC50 (Human PDE4D): 3.82 µM
- IC50 (Human PDE4A): 0.0148 µM
- IC50 (Human PDE4C): 0.0678 µM

Compound: O=C(NC1CC1)c1nc2cccnn2c1-c1ccc(Cl)cc1F [Example 40, 3-(4-chloro-2-fluorophenyl)-N-cyclopropylimidazo[1,2-b]pyridazine-2-carboxamide]
- IC50 (Human PDE4D): 9.02 µM
- IC50 (Human PDE4A): 0.0196 µM
- IC50 (Human PDE4C): 0.0581 µM
